From patent US8883826B2, “Alkynyl derivatives as modulators of metabotropic glutamate receptors” (Addex Pharma SA, priority 2004, dated 2014)

These molecules were tested against T1, mGluR5 (Rattus norvegicus, UniProt P31424) (assay: mGluR5 binding assay ([3H]-MPEP radioligand competition)). Settings: competition with 3 nM [3H]-MPEP, rat brain cortical membranes, 1 h at 4 °C; mean of at least three independent experiments in duplicate.
T1 construct: tissue Charles River Laboratories; host or cells: rat brain cortex membranes (Sprague-Dawley)
Description: Activity of compounds of the invention was examined following a radioligand binding technique using whole rat brain and tritiated 2-methyl-6-(phenylethynyl)-pyridine ([^3H]-MPEP) as a ligand following similar methods than those described in F. Gasparini et al. Bioorg. Med. Chem. Lett. 2002, 12, 407-409 and in J. F. Anderson et al. J. Pharmacol. Exp. Ther. 2002, 303, 3, 1044-1051.
Cortices were dissected out from brains of 200-300 g Sprague-Dawley rats (Charles River Laboratories, L'Arbresle, France). Tissues were homogenized in 10 volumes (vol/wt) of ice-cold 50 mM Hepes-NaOH (pH 7.4) using a Polytron disrupter (Kinematica AG, Luzern, Switzerland) and centrifuged for 30 min at 40,000 g. (4° C.). The supernatant was discarded and the pellet washed twice by resuspension in 10 volumes 50 mM HEPES-NaOH. Membranes were then collected by centrifugation and washed before final resuspension in 10 volumes of 20 mM HEPES-NaOH, pH 7.4. Protein concentration was determined by the Bradford method (Bio-Rad protein assay, Reinach, Switzerland) with bovine serum albumin as standard.
[^3H]-MPEP Binding Experiments:
Membranes were thawed and resuspended in binding buffer containing 20 mM HEPES-NaOH, 3 mM MgCl2, 3 mM CaCl2, 100 mM NaCl, pH 7.4. Competition studies were carried out by incubating for 1 h at 4° C.: 3 nM [^3H]-MPEP (39 Ci/mmol, Tocris, Cookson Ltd, Bristol, U.K.), 50 μg membrane and a concentration range of 0.003 nM-30 μM of compounds, for a total reaction volume of 300 μl. The non-specific binding was defined using 30 μM MPEP. Reaction was terminated by rapid filtration over glass-fiber filter plates (Unifilter 96-well GF/B filter plates, Perkin-Elmer, Schwerzenbach, Switzerland) using 4×400 μl ice cold buffer using cell harvester (Filtermate, Perkin-Elmer, Downers Grove, USA). Radioactivity was determined by liquid scintillation spectrometry using a 96-well plate reader (TopCount, Perkin-Elmer, Downers Grove, USA).
The inhibition curves were generated using the Prism GraphPad program (Graph Pad Software Inc, San Diego, USA). IC50 determinations were made from data obtained from 8 point-concentration response curves using a non linear regression analysis.
The table below represents the mean of IC50 obtained from at least three independent experiments of selected molecules performed in duplicate.

T1 sequence (P31424 21-1203): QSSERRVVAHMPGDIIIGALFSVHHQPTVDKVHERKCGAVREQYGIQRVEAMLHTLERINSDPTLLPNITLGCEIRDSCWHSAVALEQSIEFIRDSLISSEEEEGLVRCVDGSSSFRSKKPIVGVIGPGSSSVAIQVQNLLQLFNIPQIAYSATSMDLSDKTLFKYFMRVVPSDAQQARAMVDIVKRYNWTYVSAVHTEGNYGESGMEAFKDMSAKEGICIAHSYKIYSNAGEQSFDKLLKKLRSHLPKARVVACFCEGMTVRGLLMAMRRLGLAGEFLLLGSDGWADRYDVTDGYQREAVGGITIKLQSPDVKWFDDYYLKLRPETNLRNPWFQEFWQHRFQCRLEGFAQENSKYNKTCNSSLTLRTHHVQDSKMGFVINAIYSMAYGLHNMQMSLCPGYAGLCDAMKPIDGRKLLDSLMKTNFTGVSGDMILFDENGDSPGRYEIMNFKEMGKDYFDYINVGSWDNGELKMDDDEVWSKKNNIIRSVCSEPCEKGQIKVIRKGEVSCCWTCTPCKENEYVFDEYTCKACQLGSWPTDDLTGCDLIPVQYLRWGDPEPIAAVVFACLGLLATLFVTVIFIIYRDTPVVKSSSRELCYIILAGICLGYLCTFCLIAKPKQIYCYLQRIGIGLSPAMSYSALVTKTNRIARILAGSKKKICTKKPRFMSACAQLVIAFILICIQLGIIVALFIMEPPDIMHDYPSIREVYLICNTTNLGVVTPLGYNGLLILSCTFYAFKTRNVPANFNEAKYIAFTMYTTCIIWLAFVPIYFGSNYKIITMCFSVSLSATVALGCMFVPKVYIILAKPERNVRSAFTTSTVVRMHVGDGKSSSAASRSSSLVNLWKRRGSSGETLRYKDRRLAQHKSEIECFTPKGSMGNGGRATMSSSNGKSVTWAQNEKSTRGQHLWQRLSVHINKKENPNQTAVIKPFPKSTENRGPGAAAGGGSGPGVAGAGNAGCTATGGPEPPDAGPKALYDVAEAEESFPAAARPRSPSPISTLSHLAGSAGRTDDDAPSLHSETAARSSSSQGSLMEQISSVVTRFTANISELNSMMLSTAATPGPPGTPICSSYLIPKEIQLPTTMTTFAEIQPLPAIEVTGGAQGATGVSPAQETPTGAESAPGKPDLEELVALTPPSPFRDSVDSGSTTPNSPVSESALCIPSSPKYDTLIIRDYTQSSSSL

Compound | IC50
Cn1ccc(C#CCCc2nc3ccccc3s2)n1 [Example 121, 2-(4-(1-Methyl-1H-pyrazol-3-yl)but-3-ynyl)benzo[d]thiazole] | < 10 µM
C(#Cc1ccccn1)CCn1cc(-c2ccccc2)cn1 [Example 122, 2-(4-(4-Phenyl-1H-pyrazol-1-yl)but-1-ynyl)pyridine] | < 10 µM
Clc1cccc2cn(CCC#Cc3ccccn3)nc12 [Example 123, 7-Chloro-2-(4-(pyridin-2-yl)but-3-ynyl)-2H-indazole] | < 10 µM
C(#Cc1ccccn1)CCCCn1nc2ccccc2n1 [Example 124, 2-(6-(Pyridin-2-yl)hex-5-ynyl)-2H-benzo[d][1,2,3]triazole] | < 10 µM
Fc1ccc2nn(CCC#Cc3ccccn3)nc2c1 [Example 127, 5-Fluoro-2-(4-(pyridin-2-yl)but-3-ynyl)-2H-benzo[d][1,2,3]triazole] | < 10 µM
Cc1cccc(C#CCCc2ccc3ccccc3n2)n1 [Example 128, 2-(4-(6-Methylpyridin-2-yl)but-3-ynyl)quinoline] | < 0.05 µM
FCc1cccc(C#CCCn2cc3ccccc3n2)n1 [Example 133, 2-(4-(6-(Fluoromethyl)pyridin-2-yl)but-3-ynyl)-2H-indazole] | < 10 µM
Fc1cc(F)c2nn(CCC#Cc3ccccn3)nc2c1 [Example 135, 4,6-Difluoro-2-(4-(pyridin-2-yl)but-3-ynyl)-2H-benzo[d][1,2,3]triazole] | < 10 µM
Fc1ccc2nn(CCC#Cc3ccccn3)nc2c1F [Example 136, 4,5-Difluoro-2-(4-(pyridin-2-yl)but-3-ynyl)-2H-benzo[d][1,2,3]triazole] | < 10 µM
Cc1cccc(C#CCCn2nc3ccccc3n2)n1 [Example 137, 2-(4-(6-Methylpyridin-2-yl)but-3-ynyl)-2H-benzo[d][1,2,3]triazole] | < 0.05 µM
Fc1cccnc1C#CCCn1nc2ccccc2n1 [Example 138, 2-(4-(3-Fluoropyridin-2-yl)but-3-ynyl)-2H-benzo[d][1,2,3]triazole] | < 10 µM
FCc1cccc(C#CCCn2nc3ccc(F)cc3n2)n1 [Example 139, 5-Fluoro-2-(4-(6-(fluoromethyl)pyridin-2-yl)but-3-ynyl)-2H-benzo[d][1,2,3]triazole] | < 0.05 µM
Fc1ccc(-c2cnn(CCC#Cc3ccccn3)c2)cc1 [Example 140, 2-(4-(4-(4-Fluorophenyl)-1H-pyrazol-1-yl)but-1-ynyl)pyridine] | < 10 µM
Cc1nc(C#CCCn2nc3ccccc3n2)cs1 [Example 141, 2-(4-(2-Methylthiazol-4-yl)but-3-ynyl)-2H-benzo[d][1,2,3]triazole] | < 0.05 µM
Cc1ccccc1-c1cnn(CCC#Cc2ccccn2)c1 [Example 142, 2-(4-(4-o-Tolyl-1H-pyrazol-1-yl)but-1-ynyl)pyridine] | < 10 µM
Cc1ccccc1-c1cnn(CCC#Cc2cccc(CF)n2)c1 [Example 143, 2-(Fluoromethyl)-6-(4-(4-o-tolyl-1H-pyrazol-1-yl)but-1-ynyl)pyridine] | < 10 µM
FCc1cccc(C#CCCn2cc(-c3ccc(F)cc3)cn2)n1 [Example 144, 2-(Fluoromethyl)-6-(4-(4-(4-fluorophenyl)-1H-pyrazol-1-yl)but-1-ynyl)pyridine] | < 10 µM
FCc1cccc(C#CCCc2cnc3cc(F)ccc3n2)n1 [Example 145, 6-Fluoro-2-(4-(6-(fluoromethyl)pyridin-2-yl)but-3-ynyl)quinoxaline] | < 0.05 µM
Clc1cccc2nn(CCC#Cc3ccccn3)nc12 [Example 146, 4-Chloro-2-(4-(pyridin-2-yl)but-3-ynyl)-2H-benzo[d][1,2,3]triazole] | < 0.05 µM
FCc1cccc(C#CCCn2nc3cccc(Cl)c3n2)n1 [Example 147, 4-Chloro-2-(4-(6-(fluoromethyl)pyridin-2-yl)but-3-ynyl)-2H-benzo[d][1,2,3]triazole] | < 0.05 µM
FCc1cccc(C#CCCn2cc3c(F)cccc3n2)n1 [Example 149, 4-Fluoro-2-(4-(6-(fluoromethyl)pyridin-2-yl)but-3-ynyl)-2H-indazole] | < 0.05 µM
Clc1cccc2nn(CCC#Cc3ccccn3)cc12 [Example 150, 4-Chloro-2-(4-(pyridin-2-yl)but-3-ynyl)-2H-indazole] | < 0.05 µM

Compound | IC50
FCc1cccc(C#CCCn2cc3ccc(F)cc3n2)n1 [Example 151, 6-Fluoro-2-(4-(6-(fluoromethyl)pyridin-2-yl)but-3-ynyl)-2H-indazole] | < 0.05 µM
FCc1cccc(C#CCCn2cc3c(Cl)cccc3n2)n1 [Example 152, 4-Chloro-2-(4-(6-(fluoromethyl)pyridin-2-yl)but-3-ynyl)-2H-indazole] | < 0.05 µM
FCc1cccc(C#CCCn2cc3cccc(F)c3n2)n1 [Example 155, 7-Fluoro-2-(4-(6-(fluoromethyl)pyridin-2-yl)but-3-ynyl)-2H-indazole] | < 0.05 µM
Cn1ccc(C#CCCn2nc3cccc(Cl)c3n2)n1 [Example 156, 4-Chloro-2-(4-(1-methyl-1H-pyrazol-3-yl)but-3-ynyl)-2H-benzo[d][1,2,3]triazole] | < 0.05 µM
Nc1cccc(C#CCCn2nc3cc(F)cc(F)c3n2)n1 [Example 157, 6-(4-(4,6-Difluoro-2H-benzo[d][1,2,3]triazol-2-yl)but-1-ynyl)pyridin-2-amine] | < 10 µM
C(#Cc1ccccn1)CCn1ccc(-c2ccccc2)n1 [Example 159, 2-(4-(3-Phenyl-1H-pyrazol-1-yl)but-1-ynyl)pyridine] | < 10 µM
O=[N+]([O-])c1cccc2nn(CCC#Cc3ccccn3)nc12 [Example 160, 4-Nitro-2-(4-(pyridin-2-yl)but-3-ynyl)-2H-benzo[d][1,2,3]triazole] | < 10 µM
O=[N+]([O-])c1cccc2nn(CCC#Cc3cccc(CF)n3)nc12 [Example 161, 2-(4-(6-(Fluoromethyl)pyridin-2-yl)but-3-ynyl)-4-nitro-2H-benzo[d][1,2,3]triazole] | < 10 µM
Cc1cccc2nn(CCC#Cc3ccccn3)nc12 [Example 163, 4-Methyl-2-(4-(pyridin-2-yl)but-3-ynyl)-2H-benzo[d][1,2,3]triazole] | < 0.05 µM
Cc1cccc2nn(CCC#Cc3cccc(CF)n3)nc12 [Example 164, 2-(4-(6-(Fluoromethyl)pyridin-2-yl)but-3-ynyl)-4-methyl-2H-benzo[d][1,2,3]triazole] | < 0.05 µM
Cc1ccc2nn(CCC#Cc3cccc(CF)n3)nc2c1 [Example 165, 2-(4-(6-(Fluoromethyl)pyridin-2-yl)but-3-ynyl)-5-methyl-2H-benzo[d][1,2,3]triazole] | < 0.05 µM
Cc1ccc2nn(CCC#Cc3ccccn3)nc2c1 [Example 166, 5-Methyl-2-(4-(pyridin-2-yl)but-3-ynyl)-2H-benzo[d][1,2,3]triazole] | < 0.5 µM
Fc1ccc(-c2ccnn2CCC#Cc2ccccn2)cc1 [Example 171, 2-(4-(5-(4-Fluorophenyl)-1H-pyrazol-1-yl)but-1-ynyl)pyridine] | < 10 µM
FC(CC#Cc1ccccn1)c1cnc2ccccc2n1 (stereo not shown) [Example 172, 2-(1-Fluoro-4-(pyridin-2-yl)but-3-ynyl)quinoxaline] | < 10 µM
O=CNc1cccc(C#CCCn2nc3ccccc3n2)n1 [Example 175, N-(6-(4-(2H-Benzo[d][1,2,3]triazol-2-yl)but-1-ynyl)pyridin-2-yl)formamide] | < 10 µM
Cc1nc(C#CCCn2nc3cccc(Cl)c3n2)cn1C [Example 176, 4-Chloro-2-(4-(1,2-dimethyl-1H-imidazol-4-yl)but-3-ynyl)-2H-benzo[d][1,2,3]triazole] | < 10 µM
Cc1ccc2nn(CCC#Cc3ccccn3)nc2c1C [Example 177, 4,5-Dimethyl-2-(4-(pyridin-2-yl)but-3-ynyl)-2H-benzo[d][1,2,3]triazole] | < 10 µM
Cc1ccc2nn(CCC#Cc3cccc(CF)n3)nc2c1C [Example 178, 2-(4-(6-(Fluoromethyl)pyridin-2-yl)but-3-ynyl)-4,5-dimethyl-2H-benzo[d][1,2,3]triazole] | < 10 µM
Clc1cccc(C#CCCn2nc3ccccc3n2)n1 [Example 180, 2-(4-(6-Chloropyridin-2-yl)but-3-ynyl)-2H-benzo[d][1,2,3]triazole] | < 10 µM
Cc1nc2ccccc2nc1CCC#Cc1cccc(CF)n1 [Example 181, 2-(4-(6-(Fluoromethyl)pyridin-2-yl)but-3-ynyl)-3-methylquinoxaline] | < 10 µM
CC(F)c1cccc(C#CCCn2nc3ccccc3n2)n1 (stereo not shown) [Example 182, 2-(4-(6-(1-Fluoroethyl)pyridin-2-yl)but-3-ynyl)-2H-benzo[d][1,2,3]triazole] | < 10 µM
